# According to ChEMBL document CHEMBL1139128, “Structure-activity relationship analysis of a novel necroptosis inhibitor, Necrostatin-5” (Bioorg Med Chem Lett, 2007):
# Calls of active or inactive are those of the source. The rule behind the calls is not given here.
# Tested on: Jurkat
# Assay: Inhibition of TNF-alpha-induced necroptosis in FADD-deficient Jurkat T cells
# Assay type: functional, cell-based
# Design: concentration or dose not given beside the values
# Conditions: for EC50: Jurkat
SMILES,Activity (Homo sapiens),Activity [%],EC50 (Homo sapiens) [nM]
CCc1sc2nc(SCCO)n(-c3ccc(OC)cc3)c(=O)c2c1C,inactive,,
COc1ccc(-n2c(SCCO)nc3sc(C)c(C)c3c2=O)cc1,,78,7260
COc1ccc(-n2c(SCc3ccc([N+](=O)[O-])cc3)nc3sc4c(c3c2=O)CCCC4)cc1,inactive,,
COc1ccc(-n2c(SC)nc3sc(C(C)C)c(C)c3c2=O)cc1,inactive,,
CCOc1ccc(-n2c(SC)nc3sc4c(c3c2=O)CCC4)cc1,inactive,,
COc1ccc(-n2c(SC)nc3sc(C)c(C)c3c2=O)cc1,inactive,,
COc1ccc(-n2c(S(C)(=O)=O)nc3sc4c(c3c2=O)CCCC4)cc1,inactive,,
CCc1c(C)sc2nc(SCC#N)n(-c3ccc4c(c3)OCO4)c(=O)c12,,100,1900
COc1ccc(-n2c(SCc3ccc([N+](=O)[O-])cc3)nc3sc4c(c3c2=O)CCC4)cc1,inactive,,
C#CCSc1nc2sccc2c(=O)n1-c1ccc(OC)cc1,inactive,,
COc1ccc(-n2c(SCC#N)nc3sc(C(C)C)c(C)c3c2=O)cc1,inactive,,
CCCC(=O)Sc1nc2sc3c(c2c(=O)n1-c1ccc(OC)cc1)CCCC3,inactive,,
Cc1sc2nc(SCC#N)n(-c3ccc4c(c3)OCO4)c(=O)c2c1C,,100,1650
CSc1nc2sc(C)c(C)c2c(=O)n1-c1ccc(C)c(C)c1,inactive,,
CCOc1ccc(-n2c(SCC#N)nc3sc4ccccc4c3c2=O)cc1,inactive,,
C=CCSc1nc2sc3c(c2c(=O)n1-c1ccc(OC)cc1)CCC3,inactive,,
COc1ccc(-n2c(SC)nc3sc4c(c3c2=O)CCCC4)cc1OC,,54.5,16700
CCc1sc2nc(SC)n(-c3ccc(OC)cc3)c(=O)c2c1C,inactive,,
CCN1CCc2sc3nc(SC)n(-c4ccc(OC)cc4)c(=O)c3c2C1,inactive,,
CCCCCCSc1nc2sc3c(c2c(=O)n1-c1ccc(OC)cc1)CCCC3,inactive,,
CSc1cccc(-n2c(SC)nc3sc4c(c3c2=O)CCCC4)c1,inactive,,
CCCc1sc2nc(SCCO)n(-c3ccc(OC)cc3)c(=O)c2c1C,inactive,,
Cc1cc(Cl)ccc1-n1c(SCC#N)nc2sc3c(c2c1=O)CCCC3,inactive,,
N#CCSc1nc2sc3c(c2c(=O)n1-c1ccc(OC(F)(F)F)cc1)CCCCC3,inactive,,
COc1ccc(-n2c(SC[N+](=O)[O-])nc3sc4c(c3c2=O)CCCC4)cc1,inactive,,

SMILES,Activity (Homo sapiens),Activity [%],EC50 (Homo sapiens) [nM]
CCc1c(C)sc2nc(SC)n(-c3ccc4c(c3)OCO4)c(=O)c12,inactive,,
CCCCCSc1nc2sc3c(c2c(=O)n1-c1ccc(OC)cc1)CCCC3,inactive,,
CSc1nc2sccc2c(=O)n1-c1ccccc1,inactive,,
COc1ccc(-n2c(SCC#N)nc3sc4c(c3c2=O)CCC4)cc1,,100,450
N#CCSc1nc2sc3ccccc3c2c(=O)n1-c1ccc(OC(F)(F)F)cc1,inactive,,
CCCc1sc2nc(SCC)n(-c3ccc(OC)cc3)c(=O)c2c1C,inactive,,
Cc1ccc(-n2c(SCC#N)nc3sc(C)c(C)c3c2=O)cc1C,,90.7,2790
CCCc1sc2nc(SCC#N)n(-c3ccc(OC)cc3)c(=O)c2c1C,inactive,,
CCSc1nc2sc3c(c2c(=O)n1-c1ccc(OC)cc1)CCCCC3,inactive,,
N#CCSc1nc2sc3c(c2c(=O)n1-c1ccc(F)cc1)CCCCC3,inactive,,
CCOc1ccc(-n2c(SC)nc3sc(C)c(C)c3c2=O)cc1,inactive,,
CSc1nc2sc3c(c2c(=O)n1-c1ccc(Cl)c(Cl)c1)CCCC3,inactive,,
C#CCSc1nc2sc(C)c(C)c2c(=O)n1-c1ccc(OC)cc1,,90.3,4860
CSc1nc2sc3ccccc3c2c(=O)n1-c1ccc2c(c1)OCO2,inactive,,
CSc1nc2sc3ccccc3c2c(=O)n1-c1ccc(F)cc1,,,3060
N#CCSc1nc2sc3c(c2c(=O)n1-c1ccc(Cl)cc1)CCCC3,,55,8500
COc1ccc(-n2c(SC)nc3sc4c(c3c2=O)CCCC4)cc1,,71,240
CSc1nc2sc3c(c2c(=O)n1-c1ccc(OCc2ccccc2)cc1)CCCC3,inactive,,
N#CCSc1nc2sc3c(c2c(=O)n1-c1ccc2c(c1)OCO2)CCCC3,,100,890
CCOc1ccc(-n2c(SCC#N)nc3sc4c(c3c2=O)CCCC4)cc1,,83.8,550
COc1ccc(-n2c(SCC#N)nc3sc(C)c(C)c3c2=O)cc1,,100,450
COc1ccc(-n2c(SCC#N)nc3c(c2=O)C2CCCCCC2S3)cc1 (stereo unspecified),,83,960
CSc1nc2sc3c(c2c(=O)n1-c1ccc(F)cc1)CCC3,,95,3000
Cc1ccc(-n2c(SCC#N)nc3sc4c(c3c2=O)CCC4)cc1C,inactive,,
CCOc1ccc(-n2c(SCC#N)nc3sc(C)c(C)c3c2=O)cc1,,97,7770

SMILES,Activity (Homo sapiens),Activity [%],EC50 (Homo sapiens) [nM]
CSc1nc2sc(C)c(C)c2c(=O)n1-c1ccc(F)cc1,,69.2,2600
CCN1CCc2sc3nc(SC)n(-c4ccccc4)c(=O)c3c2C1,inactive,,
COc1ccc(-n2c(SCC#N)nc3sc4c(c3c2=O)CCCC4)cc1OC,,57,5700
Cc1sc2nc(SCC#N)n(-c3ccc(OC(F)(F)F)cc3)c(=O)c2c1C,,63,3700
Cc1sc2nc(SCC#N)n(-c3ccc(OCc4ccccc4)cc3)c(=O)c2c1C,inactive,,
COc1ccc(-n2c(SC)nc3sc4c(c3c2=O)CC(C)CC4)cc1 (stereo unspecified),inactive,,
CCc1cc2c(=O)n(-c3ccc(OC)cc3)c(SCC#N)nc2s1,inactive,,
COc1ccc(-n2c(SCC#N)nc3sc4c(c3c2=O)CC(C)CC4)cc1OC (stereo unspecified),inactive,,
COc1ccc(-n2c(SC)nc3sc4c(c3c2=O)CCCCC4)cc1,inactive,,
N#CCSc1nc2sc3c(c2c(=O)n1-c1ccc(Cl)c(Cl)c1)CCCC3,,39,5700
COc1ccc(-n2c(SC)nc3sc4c(c3c2=O)CN(C(C)C)CC4)cc1,inactive,,
N#CCSc1nc2sc3c(c2c(=O)n1-c1ccc2c(c1)OCO2)CCC3,,100,1180
COc1ccc(-n2c(SCC(C)=O)nc3sc4c(c3c2=O)CCC4)cc1,inactive,,
COc1ccc(-n2c(SCCC#N)nc3sc(C)c(C)c3c2=O)cc1,inactive,,
COc1ccc(-n2c(SCC#N)nc3sc4c(c3c2=O)CN(C(C)C)CC4)cc1,inactive,,
COc1ccc(-n2c(SCC#N)nc3sc4c(c3c2=O)CCC4)cc1OC,inactive,,
CSc1nc2sc3c(c2c(=O)n1-c1ccc(F)cc1)CCCCC3,inactive,,
Cc1ccc(-n2c(SCC#N)nc3sc4c(c3c2=O)CCCC4)cc1C,,45,16700
N#CCSc1nc2sc3c(c2c(=O)n1-c1ccc(OC(F)(F)F)cc1)CCCC3,inactive,,
CCc1c(C)sc2nc(SCCO)n(-c3ccc4c(c3)OCO4)c(=O)c12,inactive,,
C#CCSc1nc2sc3c(c2c(=O)n1-c1ccc(OC)cc1)CCCCC3,inactive,,
COc1ccc(-n2c(SCC(N)=O)nc3sc4c(c3c2=O)CCCC4)cc1,inactive,,
CCc1c(C)sc2nc(SC)n(-c3ccc(OC)cc3)c(=O)c12,inactive,,
CCCCCCCCCCCCCCc1sc2nc(SC)n(-c3ccc(OC)cc3)c(=O)c2c1C,inactive,,
Cc1ccccc1-n1c(SCC#N)nc2sc3c(c2c1=O)CCCC3,inactive,,

SMILES,Activity (Homo sapiens),Activity [%],EC50 (Homo sapiens) [nM]
CCN1CCc2sc3nc(SCC#N)n(-c4ccc(OC)cc4)c(=O)c3c2C1,inactive,,
CCSc1nc2sc(C)c(C)c2c(=O)n1-c1ccc(OC)cc1,inactive,,
CSc1nc2sc(C)c(C)c2c(=O)n1-c1ccc(OCc2ccccc2)cc1,inactive,,
COc1ccc(-n2c(SCC#N)nc3sc4c(c3c2=O)CC(C)CC4)cc1 (stereo unspecified),inactive,,
COc1ccc(-n2c(SCc3ccc(C)cc3)nc3sc4c(c3c2=O)CCCC4)cc1,inactive,,
COC(=O)CSc1nc2sc3c(c2c(=O)n1-c1ccc(OC)cc1)CCCC3,inactive,,
COc1ccc(-n2c(SCC(=O)O)nc3sc(C)c(C)c3c2=O)cc1,inactive,,
COc1ccc(-n2c(SC)nc3sc4c(c3c2=O)CCC4)cc1,,97,240
N#CCSc1nc2sc3ccccc3c2c(=O)n1-c1ccc(F)cc1,,,3060
O=c1c2c3c(sc2nc(SCc2ccc([N+](=O)[O-])cc2)n1-c1ccccc1)CCCC3,inactive,,
CSc1nc2sc3c(c2c(=O)n1-c1ccc(OC(F)(F)F)cc1)CCCC3,inactive,,
CSc1ccc(-n2c(SCC#N)nc3sc4c(c3c2=O)CCCC4)cc1,,70,2330
COc1ccc(-n2c(SCCl)nc3sc4c(c3c2=O)CCCC4)cc1,,85,2220
CCCSc1nc2sc3c(c2c(=O)n1-c1ccc(OC)cc1)CCC3,inactive,,
COc1ccc(-n2c(SC(=O)c3ccccc3)nc3sc4c(c3c2=O)CCCC4)cc1,inactive,,
CCCc1sc2nc(SC)n(-c3ccc(OC)cc3)c(=O)c2c1C,inactive,,
C#CCSc1nc2sc3c(c2c(=O)n1-c1ccc(OC)cc1)CCCC3,,80.7,6080
CSc1nc2sc3c(c2c(=O)n1-c1ccc(F)cc1)CCCC3,,61.2,1570
CSc1nc2sc3c(c2c(=O)n1-c1ccc(Cl)cc1C)CCCC3,inactive,,
CCCSc1nc2sc3c(c2c(=O)n1-c1ccc(OC)cc1)CCCC3,inactive,,
C#CCSc1nc2scc(C)c2c(=O)n1-c1ccc(OC)cc1,inactive,,
COc1ccc(-n2c(SCC(=O)O)nc3sc4c(c3c2=O)CCCC4)cc1,inactive,,
COc1ccccc1-n1c(SCC#N)nc2sc3c(c2c1=O)CCCC3,,51.2,17800
CN(C)c1ccc(-n2c(SCC#N)nc3sc4ccccc4c3c2=O)cc1,inactive,,
